{
  "source": "patent US10780071B2",
  "about": "“Compositions, methods and/or devices for prevention and/or treatment of dry eye disorders” (Brien Holden Vision Institute Limited, priority 2012, dated 2020)",
  "key": {"[1]": {"test_system": "S. aureus 020 & 134, and S. epidermidis 024 & 025", "test": "Bacterial growth, summary over the test strains", "type": "cell-based", "conditions": "concentrations of Tables 1-4; 24 h", "procedure": "(§1) The bacterial strains S. aureus 020 & 134, and S. epidermidis 024 & 025 were grown at 37° C. in TSB treated with 0, 6.25 or 12.5 μg/ml of glycerol monolaurate or lauric acid as well as in TSB extraction of glycerol monolaurate ointment prior to assay of bacterial growth and lipase activity. After incubation for 24 h, bacterial growth was determined by measuring the optical density of cultures using a spectrophotometer at a wavelength of 660 nm. Lipase activity by test bacterial strains under various treatments were assessed by examining the lipase activity in bacterial culture supernatants with a QuantiChrom™ Lipase Assay Kit."}, "[2]": {"test_system": "lipase", "test": "Lipase activity in culture supernatants, summary over the test strains", "type": "cell-based, S. aureus 020 & 134, and S. epidermidis 024 & 025", "procedure": "The bacterial strains S. aureus 020 & 134, […] of glycerol monolaurate ointment prior to assay of bacterial growth and lipase activity. After incubation for 24 h, bacterial growth was determined by measuring the optical density of cultures using a spectrophotometer at a wavelength of 660 nm. Lipase activity by test bacterial strains under various treatments were assessed by examining the lipase activity in bacterial culture supernatants with a QuantiChrom™ Lipase Assay Kit."}, "[3]": {"test_system": "lipase", "test": "Lipase activity in bacterial culture supernatants (QuantiChrom Lipase Assay Kit)", "type": "cell-based", "conditions": "TSB, 37° C., 24 h", "procedure": "as §1"}, "[4]": {"test_system": "S. epidermidis 024", "test": "Bacterial growth, optical density of cultures at 660 nm", "type": "cell-based", "conditions": "read-out: Inhibition of Growth", "procedure": "as §1"}, "[5]": {"test_system": "S. epidermidis 025", "test": "Bacterial growth, optical density of cultures at 660 nm", "type": "cell-based", "conditions": "read-out: Inhibition of Growth", "procedure": "as §1"}, "[6]": {"test_system": "lipase", "test": "Lipase activity in bacterial culture supernatants (QuantiChrom Lipase Assay Kit)", "type": "cell-based", "conditions": "S. aureus 134, TSB, 37° C., 24 h", "procedure": "The bacterial strains S. aureus 020 & 134, and S. […] in TSB extraction of glycerol monolaurate ointment prior to assay of bacterial growth and lipase activity. After incubation for 24 h, bacterial growth was determined by measuring the optical density of cultures using a spectrophotometer at a wavelength of 660 nm. Lipase activity by test bacterial strains under various treatments were assessed by examining the lipase activity in bacterial culture supernatants with a QuantiChrom™ Lipase Assay Kit."}, "[7]": {"test_system": "lipase", "test": "Lipase activity in bacterial culture supernatants (QuantiChrom Lipase Assay Kit)", "type": "cell-based", "conditions": "S. aureus 020, TSB, 37° C., 24 h", "procedure": "The bacterial strains S. aureus 020 & 134, […] in TSB extraction of glycerol monolaurate ointment prior to assay of bacterial growth and lipase activity. After incubation for 24 h, bacterial growth was determined by measuring the optical density of cultures using a spectrophotometer at a wavelength of 660 nm. Lipase activity by test bacterial strains under various treatments were assessed by examining the lipase activity in bacterial culture supernatants with a QuantiChrom™ Lipase Assay Kit."}, "[8]": {"test_system": "S. aureus 020", "test": "Bacterial growth, optical density of cultures at 660 nm", "type": "cell-based", "conditions": "Staphylococcus aureus, 020, 24 h, read-out: Inhibition of Growth", "procedure": "as §1"}, "[9]": {"test_system": "S. aureus 134", "test": "Bacterial growth, optical density of cultures at 660 nm", "type": "cell-based", "conditions": "Staphylococcus aureus, TSB, 37° C., 24 h", "procedure": "as §1"}, "[10]": {"conditions": "glycerol monolaurate 12.5 μg/ml"}, "[11]": {"conditions": "glycerol monolaurate 17.5 μg/ml"}, "[12]": {"conditions": "Staphylococcus epidermidis, 024, 24 h"}, "[13]": {"conditions": "Staphylococcus epidermidis, 025, 24 h"}},
  "note": "Where two headings read alike, the source gives them in different places.",
  "data": [
    {"smiles": "CCCCCCCCCCCC(=O)O", "note": "[Lauric acid]", "values": [
      {"measurement": "effect on growth of the bacterial strains at the concentrations used", "setting": "[1]", "result": "do not substantially inhibit growth"},
      {"measurement": "inhibits lipase activity by approximately (range over Table 2)", "setting": "[2]; S. epidermidis 024 and 025, 6.25 and 12.5 μg/ml (Table 2)", "result": "46-72%"},
      {"measurement": "Inhibition of Lipase activity", "setting": "[3]; S. epidermidis 024, lauric acid 6.25 μg/ml", "result": 46, "unit": "%"},
      {"measurement": "Inhibition of Lipase activity", "setting": "[3]; S. epidermidis 024, lauric acid 12.5 μg/ml", "result": 70, "unit": "%"},
      {"measurement": "Inhibition of Lipase activity", "setting": "[3]; S. epidermidis 025, lauric acid 6.25 μg/ml", "result": 48, "unit": "%"},
      {"measurement": "Inhibition of Lipase activity", "setting": "[3]; S. epidermidis 025, lauric acid 12.5 μg/ml", "result": 72, "unit": "%"},
      {"measurement": "inhibition at 6.25 µg/mL", "setting": "[4]; Staphylococcus epidermidis, S. epidermidis 024, lauric acid 6.25 μg/ml, TSB, 37° C., 24 h", "result": 0, "unit": "%"},
      {"measurement": "inhibition at 12.5 µg/mL", "setting": "[4]; Staphylococcus epidermidis, S. epidermidis 024, lauric acid 12.5 μg/ml, TSB, 37° C., 24 h", "result": 0, "unit": "%"},
      {"measurement": "inhibition at 6.25 µg/mL", "setting": "[5]; Staphylococcus epidermidis, S. epidermidis 025, lauric acid 6.25 μg/ml, TSB, 37° C., 24 h", "result": 0, "unit": "%"},
      {"measurement": "inhibition at 12.5 µg/mL", "setting": "[5]; Staphylococcus epidermidis, S. epidermidis 025, lauric acid 12.5 μg/ml, TSB, 37° C., 24 h", "result": 0, "unit": "%"}
    ]},
    {"smiles": "CCCCCCCCCCCC(=O)OCC(O)CO", "note": "(stereo not shown) [Glycerol monolaurate]", "values": [
      {"measurement": "effect on growth of the bacterial strains at the concentrations used", "setting": "[1]", "result": "do not substantially inhibit growth"},
      {"measurement": "Inhibition of Lipase activity", "setting": "[6]; glycerol monolaurate 10 μg/ml", "result": 25, "unit": "%"},
      {"measurement": "Inhibition of Lipase activity", "setting": "[6]; [10]", "result": 38, "unit": "%"},
      {"measurement": "Inhibition of Lipase activity", "setting": "[6]; glycerol monolaurate 15 μg/ml", "result": 49, "unit": "%"},
      {"measurement": "Inhibition of Lipase activity", "setting": "[6]; [11]", "result": 63, "unit": "%"},
      {"measurement": "inhibits lipase activity by approximately (range over Table 1)", "setting": "[2]; all strains and concentrations of Table 1 (5-17.5 μg/ml)", "result": "16-88%"},
      {"measurement": "Inhibition of Lipase activity", "setting": "[3]; S. epidermidis 024, glycerol monolaurate 6.25 μg/ml", "result": 46, "unit": "%"},
      {"measurement": "Inhibition of Lipase activity", "setting": "[3]; S. epidermidis 024, glycerol monolaurate 12.5 μg/ml", "result": 70, "unit": "%"},
      {"measurement": "Inhibition of Lipase activity", "setting": "[3]; S. epidermidis 025, glycerol monolaurate 6.25 μg/ml", "result": 48, "unit": "%"},
      {"measurement": "Inhibition of Lipase activity", "setting": "[3]; S. epidermidis 025, glycerol monolaurate 12.5 μg/ml", "result": 72, "unit": "%"},
      {"measurement": "Inhibition of Lipase activity", "setting": "[7]; glycerol monolaurate 5 μg/ml", "result": 16, "unit": "%"},
      {"measurement": "Inhibition of Lipase activity", "setting": "[7]; glycerol monolaurate 7.5 μg/ml", "result": 29, "unit": "%"},
      {"measurement": "Inhibition of Lipase activity", "setting": "[7]; glycerol monolaurate 10 μg/ml", "result": 50, "unit": "%"},
      {"measurement": "Inhibition of Lipase activity", "setting": "[7]; [10]", "result": 63, "unit": "%"},
      {"measurement": "Inhibition of Lipase activity", "setting": "[7]; glycerol monolaurate 15 μg/ml", "result": 73, "unit": "%"},
      {"measurement": "Inhibition of Lipase activity", "setting": "[7]; [11]", "result": 88, "unit": "%"},
      {"measurement": "inhibition at 5 µg/mL", "setting": "[8]", "result": 1, "unit": "%"},
      {"measurement": "inhibition at 7.5 µg/mL", "setting": "[8]", "result": 0, "unit": "%"},
      {"measurement": "inhibition at 10 µg/mL", "setting": "[8]", "result": 4, "unit": "%"},
      {"measurement": "inhibition at 12.5 µg/mL", "setting": "[8]", "result": 4, "unit": "%"},
      {"measurement": "inhibition at 15 µg/mL", "setting": "[8]", "result": 2, "unit": "%"},
      {"measurement": "inhibition at 17.5 µg/mL", "setting": "[8]", "result": 0, "unit": "%"},
      {"measurement": "inhibition at 10 µg/mL", "setting": "[9]; glycerol monolaurate 10 μg/ml", "result": 0, "unit": "%"},
      {"measurement": "inhibition at 12.5 µg/mL", "setting": "[9]; [10]", "result": 0, "unit": "%"},
      {"measurement": "inhibition at 15 µg/mL", "setting": "[9]; glycerol monolaurate 15 μg/ml", "result": 1, "unit": "%"},
      {"measurement": "inhibition at 17.5 µg/mL", "setting": "[9]; [11]", "result": 0, "unit": "%"},
      {"measurement": "inhibition at 6.25 µg/mL", "setting": "[4]; [12]", "result": 0, "unit": "%"},
      {"measurement": "inhibition at 12.5 µg/mL", "setting": "[4]; [12]", "result": 0, "unit": "%"},
      {"measurement": "inhibition at 6.25 µg/mL", "setting": "[5]; [13]", "result": 0, "unit": "%"},
      {"measurement": "inhibition at 12.5 µg/mL", "setting": "[5]; [13]", "result": 0, "unit": "%"}
    ]}
  ]
}
